Results on 16 compounds are retold here after patent publication EP4752149A1, “OXYGEN-CONTAINING FUSED TRICYCLIC DERIVATIVE, AND PREPARATION METHOD THEREFOR AND USE THEREOF” (Tuojie Biotech (Shanghai) Co., Ltd., priority 2023, dated 2025).

The structures appear in SMILES notation. Some results are limits rather than exact numbers.

What all share (format): cell-based
Assay [1] deals with Ovarian cancer cells (OVCAR3). Put plainly: Inhibitory activity against ovarian cancer cells (OVCAR3), CTG cell viability. As to conditions: Homo sapiens, OVCAR-3, 168 h, 7 days with compound. As to the method: Ovarian cancer cells (OVCAR3) were cultured using an RPMI 1640 culture medium containing 10% FBS in a cell incubator (37 °C, 5% CO2). On day one, the cells were plated in a 384-well plate at a cell concentration of 800 cells/well and cultured overnight in an incubator. On day two, the cells were treated with compounds. The highest compound concentration was 10 µM and was diluted 3-fold to obtain 9 concentrations, and the final concentration of DMSO was 0.1%. After the cells were cultured in the incubator for another 7 days, the cell viability was tested using a CTG Cell Viability Detection Reagent (MCE); the testing method was consistent with the method provided by the kit. Data were processed using GraphPad Prism 8, and IC50 was calculated. [formula] X: the logarithm of the compound concentration; Y: inhibition%. Table 2. The IC50 (nM) of compounds of the present disclosure against OVCAR3

Assay [2] relates to Triple-negative breast cancer cells (HCC1806). The assay can be described thus: Inhibitory activity against triple-negative breast cancer cells (HCC1806), CTG cell viability. Conditions: Homo sapiens, 168 h, 7 days with compound. Here is the method: Triple-negative breast cancer cells (HCC1806, Nanjing Cobioer Biosciences Co., Ltd.) were cultured using an RPMI 1640 culture medium containing 10% FBS in a cell incubator (37 °C, 5% CO2). On day one, the cells were plated in a 384-well plate at a cell concentration of 200 cells/well and cultured overnight in an incubator. On day two, the cells were treated with compounds. The highest compound concentration was 10 µM and was diluted 3-fold to obtain 9 concentrations, and the final concentration of DMSO was 0.2%. After the cells were cultured in the incubator for another 7 days, the cell viability was tested using a CTG Cell Viability Detection Reagent (MCE); the testing method was consistent with the method provided by the kit. Data were processed using XLfit, and IC50 was calculated. [formula] X: the logarithm of the compound concentration; Y: inhibition%. Table 4. The IC50 (nM) of compounds of the present disclosure against HCC1806

A further assay deals with MCF-7/Palbo-R. Put plainly: Inhibitory activity against CDK4/6 inhibitor-resistant human breast cancer cells (MCF-7 palbociclib-resistant cell line), cell viability. As to conditions: Homo sapiens, MCF7, 120 h, 5 days with compound, CellTiter-Glo cell viability. Here is the method: MCF-7/Palbo-R cell source: MCF7 cells (Nanjing Cobioer Biosciences Co., Ltd.) were treated with 1 µM palbociclib for a long time, and drug resistance was induced.
The palbociclib-resistant breast cancer cell line MCF-7/Palbo-R was cultured using a DMEM culture medium containing 10% FBS in a cell incubator (37 °C, 5% CO2). On day one, the cells were plated in a 384-well plate at a cell concentration of 800 cells/well and cultured overnight in an incubator. On day two, the cells were treated with compounds. The highest compound concentration was 10 µM and was diluted 3-fold to obtain 9 concentrations, and the final concentration of DMSO was 0.2%. After the cells were cultured in the incubator for another 5 days, the cell viability was tested using a CellTiter-Glo luminescent cell viability assay kit; the testing method was consistent with the method provided by the kit. Data were processed using XLfit, and IC50 was calculated.
The inhibition rates (IR) of the test compounds were calculated using the following formula: IR (%) = (1 - (RLU compound - RLU blank control) / (RLU vehicle control-RLU blank control)) × 100%. Table 16. The IC50 (nM) of a compound of the present disclosure against MCF-7/Palbo-R

With `CC(C)c1nc2c(F)cc(-c3nc(Nc4ccc(N5CCOCC5=O)cc4F)ncc3F)c3c2n1[C@@H](C)CO3` [Example 27, (S)-4-(3-Fluoro-4-((5-fluoro-4-(8-fluoro-2-isopropyl-3-methyl-3,4-dihydro-5-oxa-1,2a-diazaacenaphthylen-6-yl)pyrimidin-2-yl)amino)phenyl)morpholin-3-one], the IC50 in assay [1] is 572 nM; in assay [2] it was 303 nM. For the compound `CNC(=O)c1ccc(Nc2ncc(F)c(-c3cc(F)c4nc(C(C)(C)O)n5c4c3OC[C@@H]5C)n2)cc1` [Example 3, (S)-4-((5-Fluoro-4-(8-fluoro-2-(2-hydroxypropan-2-yl)-3-methyl-3,4-dihydro-5-oxa-1,2a-diazaacenaphthylen-6-yl)pyrimidin-2-yl)amino)-N-methylbenzamide], the IC50 was 197 nM in assay [1] and 172 nM in assay [2]. On to `CC(=O)c1c(C)c2cnc(Nc3ccc(N4CCNCC4)cn3)nc2n(C2CCCC2)c1=O` [Palbociclib], for which the IC50 in the assay with MCF-7/Palbo-R is over 2000 nM. As to `CNS(=O)(=O)c1ccc(Nc2ncc(Cl)c(-c3cc(F)c4nc(C(C)(C)O)n5c4c3OC[C@@H]5C)n2)c(F)c1` [Example 7, (S)-4-((5-Chloro-4-(8-fluoro-2-(2-hydroxypropan-2-yl)-3-methyl-3,4-dihydro-5-oxa-1,2a-diazaacenaphthylen-6-yl)pyrimidin-2-yl)amino)-3-fluoro-N-methylbenzenesulfonamide], the half-inhibitory concentration (IC50) in assay [1] amounted to 670 nM; in assay [2] it was 342 nM.

With `C[C@H]1COc2c(-c3nc(Nc4ccc(N5CCOCC5=O)cc4F)ncc3F)cc(F)c3nc(C(C)(C)O)n1c23` [Example 4, (S)-4-(3-Fluoro-4-((5-fluoro-4-(8-fluoro-2-(2-hydroxypropan-2-yl)-3-methyl-3,4-dihydro-5-oxa-1,2a-diazaacenaphthylen-6-yl)pyrimidin-2-yl)amino)phenyl)morpholin-3-one], the IC50 came out at 348 nM in assay [1] and 278 nM in assay [2]. For `COC(C)c1nc2c(F)cc(-c3nc(Nc4ccc(N5CCOCC5=O)cc4F)ncc3F)c3c2n1[C@@H](C)CO3` (stereo partly drawn) [Example 22, 4-(3-Fluoro-4-((5-fluoro-4-((3S)-8-fluoro-2-(1-methoxyethyl)-3-methyl-3,4-dihydro-5-oxa-1,2a-diazaacenaphthylen-6-yl)pyrimidin-2-yl)amino)phenyl)morpholin-3-one], the IC50 in assay [1] came to 825 nM; in assay [2] it was 406 nM.

Take `C[C@H]1COc2c(-c3nc(Nc4ccc(N5CCOCC5=O)c(F)c4)ncc3Cl)cc(F)c3nc(C(C)(C)O)n1c23` [Example 24, (S)-4-(4-((5-Chloro-4-(8-fluoro-2-(2-hydroxypropan-2-yl)-3-methyl-3,4-dihydro-5-oxa-1,2a-diazaacenaphthylen-6-yl)pyrimidin-2-yl)amino)2-fluorophenyl)morpholin-3-one]: in assay [1], the IC50 came out at 255 nM. Turning to `C[C@H]1COc2c(-c3nc(Nc4ccc(C(=O)N5CC[C@H](N(C)C)C5)c(Cl)c4)ncc3Cl)cc(F)c3nc(C(C)(C)O)n1c23` [Example 36, (2-Chloro-4-((5-chloro-4-((S)-8-fluoro-2-(2-hydroxypropan-2-yl)-3-methyl-3,4-dihydro-5-oxa-1,2a-diazaacenaphthylen-6-yl)pyrimidin-2-yl)amino)phenyl)((S)-3-(dimethylamino)pyrrolidin-1-yl)methanone], the IC50 in assay [1] is 961 nM. In the case of `CNC(=O)c1ccc(Nc2ncc(Cl)c(-c3cc(F)c4nc(C(C)(C)O)n5c4c3OC[C@@H]5C)n2)cc1` [Example 11, (S)-4-((5-Chloro-4-(8-fluoro-2-(2-hydroxypropan-2-yl)-3-methyl-3,4-dihydro-5-oxa-1,2a-diazaacenaphthylen-6-yl)pyrimidin-2-yl)amino)-N-methylbenzamide], the IC50 in assay [1] stood at 673 nM. `C[C@H]1COc2c(-c3nc(Nc4ccc(N5CCOCC5=O)cc4F)ncc3F)cc(F)c3nc(C4(O)CCC4)n1c23` [Example 28, (S)-4-(3-Fluoro-4-((5-fluoro-4-(8-fluoro-2-(1-hydroxycyclobutyl)-3-methyl-3,4-dihydro-5-oxa-1,2a-diazaacenaphthylen-6-yl)pyrimidin-2-yl)amino)phenyl)morpholin-3-one]: the IC50 in assay [1] came out at 137 nM.

For the compound `C[C@H]1COc2c(-c3nc(Nc4ccc(C(=O)N5CC[C@H](N(C)C)C5)c(F)c4)ncc3Cl)cc(F)c3nc(C(C)(C)O)n1c23` [Example 35, (4-((5-Chloro-4-((S)-8-fluoro-2-(2-hydroxypropan-2-yl)-3-methyl-3,4-dihydro-5-oxa-1,2a-diazaacenaphthylen-6-yl)pyrimidin-2-yl)amino)2-fluorophenyl)((S)-3-(dimethylamino)pyrrolidin-1-yl)methanone], the IC50 in assay [1] stood at 202 nM.

As to `Cc1nc2c(F)cc(-c3nc(Nc4ccc(N5CCOCC5=O)cc4F)ncc3F)c3c2n1[C@@H](C)CO3` [Example 6, (S)-4-(3-Fluoro-4-((5-fluoro-4-(8-fluoro-2,3-dimethyl-3,4-dihydro-5-oxa-1,2a-diazaacenaphthylen-6-yl)pyrimidin-2-yl)amino)phenyl)morpholin-3-one], the concentration for half-maximal inhibition (IC50) in assay [1] was 80.2 nM.

With `COCc1nc2c(F)cc(-c3nc(Nc4ccc(N5CCOCC5=O)cc4F)ncc3F)c3c2n1[C@@H](C)CO3` [Example 26, (S)-4-(3-Fluoro-4-((5-fluoro-4-(8-fluoro-2-(methoxymethyl)-3-methyl-3,4-dihydro-5-oxa-1,2a-diazaacenaphthylen-6-yl)pyrimidin-2-yl)amino)phenyl)morpholin-3-one], the IC50 in assay [1] worked out at 517 nM. In the case of `C[C@H]1COc2c(-c3nc(Nc4ccc(N5CCNCC5=O)cc4F)ncc3Cl)cc(F)c3nc(C(C)(C)O)n1c23` [Example 23, (S)-1-(4-((5-Chloro-4-(8-fluoro-2-(2-hydroxypropan-2-yl)-3-methyl-3,4-dihydro-5-oxa-1,2a-diazaacenaphthylen-6-yl)pyrimidin-2-yl)amino)3-fluorophenyl)piperazin-2-one], the IC50 in assay [2] is 386 nM. On to `C[C@H]1COc2c(-c3nc(Nc4ccc(N5CCOCC5=O)cc4F)ncc3F)cc(F)c3ncn1c23` [Example 2, (S)-4-(3-Fluoro-4-((5-fluoro-4-(8-fluoro-3-methyl-3,4-dihydro-5-oxa-1,2a-diazaacenaphthylen-6-yl)pyrimidin-2-yl)amino)phenyl)morpholin-3-one], for which the IC50 in assay [1] turned out to be 47.5 nM.

Take `C[C@H]1COc2c(-c3nc(Nc4ccc(N5CCOCC5=O)cc4F)ncc3Cl)cc(F)c3nc(C4(O)CCCC4)n1c23` [Example 44, (S)-4-(4-((5-Chloro-4-(8-fluoro-2-(1-hydroxycyclopentyl)-3-methyl-3,4-dihydro-5-oxa-1,2a-diazaacenaphthylen-6-yl)pyrimidin-2-yl)amino)-3-fluorophenyl)morpholin-3-one]: the IC50 was 574 nM in assay [1] and 199 nM in assay [2].

A word on the IC50: it is the concentration at which inhibition is half-maximal.
